{
  "source": "patent US10023614B2",
  "about": "“Oral peptide inhibitors of interleukin-23 receptor and their use to treat inflammatory bowel diseases” (Protagonist Therapeutics, Inc., priority 2014, dated 2018)",
  "test_system": "Sprague Dawley rats, DSS-induced colitis",
  "test": "Rat colitis model: 9 days of 3% DSS-containing drinking water",
  "type": "in vivo",
  "details": "100 mg/kg PO, QD; compared to DSS alone, from Day 5",
  "procedure": "In this model, colitis was induced in SD rats by 9 days of ad lib exposure to drinking water containing 3% DSS. The disease activity index (DAI) score and ratio of colon weight:colon length were compared between three study groups (n=6 rats/group): vehicle, 3% DSS, and 3% DSS with positive control (sulfasalazine administered at 100 mg/kg PO, QD).\nAcute colitis was induced by feeding female Sprague Dawley rats with 3% (wt/vol) DSS dissolved in drinking water. […] A neutralizing anti-IL-23p19 antibody was used as a comparator, and was administered intraperitoneally at 4 mg/kg on the same day and fifth day after starting DSS. To quantify colitis with clinical activity, disease activity index (DAI) was determined daily for each animal as an average of three parameters: body weight change (scale 0-3), stool consistency (scale 0-3) and hemoccult blood (scale 0-3), as shown in Table 15. At necropsy, the entire colon was removed from the cecum to the rectum. The colon was measured for length, flushed with PBS to remove feces, weighed, and opened longitudinally to determine macroscopic score.\nStatistical analysis for significance was compared to the vehicle treated group and was determined using Student's T-test (GraphPad Prism). Differences were noted as significant *p<0.05, **p<0.01, ***p<0.001, ****p<0.0001.",
  "data": [
    {"smiles": "O=C(O)c1cc(/N=N/c2ccc(S(=O)(=O)Nc3ccccn3)cc2)ccc1O", "note": "[sulfasalazine]", "values": [
      {"measurement": "disease activity index (DAI) score", "value": "attenuated the disease score"}
    ]}
  ]
}
